Results on 6 compounds are retold here after paper PMC10002493, “Direct Oral FXa Inhibitors Binding to Human Serum Albumin: Spectroscopic, Calorimetric, and Computational Studies” (International Journal of Molecular Sciences, 2023).

In one data set the target is T1, fatty-acid-free HSA.
T1 construct: purchased Sigma-Aldrich
As to the kind of experiment: Isothermal titration calorimetry (ITC) of anticoagulants with HSA. The arrangement: species or system human. Particulars: phosphate buffer 10 mM, pH 7.4, 298 K, one-site binding model. The protocol: (§1) ITC analyses were performed in phosphate buffer, 10 mM, pH = 7.4. […] Lower ionization enthalpy reduces heat signals associated with proton-exchange reactions between the buffer and the ligand/host system during complex formation. […] A plot of the heat released per mole of HSA as a function of the molar ratio of the solution ([HSA]/[anticoagulant]) is shown at the foot of each figure. […] Control titrations were performed (drug over buffer) and subtracted from each analysis before the fitting.
(§2) ITC data were obtained using a MicroCal PEAQ-ITC instrument (Malvern Panalytical). […] Working solutions were prepared using aliquots of the stock solutions of anticoagulants diluted in phosphate buffer, 10 mM, pH = 7.4. […] The first injection was 0.40 μL, followed by 12 injections of 3.0 μL. Reference power was set to 5 μcal/s, 500 rpm stirring speed, initial delay of 60 s, and injection spacing of 150 s. Titration curves were drawn in duplicate and the thermodynamic parameters were fitted to the one-site binding model using Microcal PEAQ-ITC analysis software. Controls were measured by recording the heat effects of the titrant over plain buffer and were subtracted from thermograms before fitting analysis. All the measurements were performed in duplicate.

The subject of a further data set is HSA: heme-Fe(III). Also on record: method as in PMID 32279215. Particulars: pH 7.3, 20 °C, Phosphate 2.0 × 10^−2 M DMSO 10%, binding site IB, UV; cited from earlier work.
The test system of data set [1] is T2, human serum albumin (HSA).
T2 construct: purchased Sigma-Aldrich
As to the kind of experiment: Steady-state fluorescence quenching of HSA (Stern–Volmer analysis). Particulars: for Ksv (Stern–Volmer constant): 0.10 M tris-HCl pH 7.4, 0.10 M NaCl, 2 µM HSA, 0–20 µM drug, λex 295 nm; for Ksv of salt compared to the neutral compound: 298 K and 310 K. Format: binding. The protocol: The fluorescence intrinsic to proteins is attributed to aromatic amino acid residues, such as tryptophan (Trp), phenylalanine (Phe), and tyrosine (Tyr). The fluorescence of HSA in particular can be traced back to its tyrosine and tryptophan residues, therefore the experiments were performed with an excitation wavelength of 295 nm, because tryptophan absorbs light in this range [33]. HSA has a single tryptophan residue (Trp-214) close to the Sudlow site I (subdomain IIA), responsible for the main fluorescence emission of the protein [34, 35]. Binding to this site induces fluorescence quenching, which is a very helpful tool to evaluate different drugs’ interactions with HSA.
Sample measurements were recorded in 0.10 M tris-HCl buffer pH 7.4 with 0.10 M NaCl, 2 µM HSA, 0–20 µM FXa inhibitors respectively (λex = 295 nm).
The quenching process of HSA can be described as static or dynamic. Static quenching occurs when HSA forms complexes with anticoagulants in the ground state, whereas dynamic quenching occurs via diffusion-controlled encounters in the excited state. Consequently, temperature affects the quenching processes in a different manner. The Stern–Volmer constant has a temperature dependence: Ksv in a dynamic process increases with temperature due to the necessity of successful diffusion and collision of the FXa inhibitors with the tryptophan residues of HSA. In a static quenching process, Ksv decreases with rising temperature, due to the diminished stability of the complex in the ground state. The quenching process of HSA can be analyzed by the Stern–Volmer equation, which provides helpful information regarding the binding process. Table 1 and Figure 4 summarize the Ksv of the HSA-FXa inhibitor complexes at 298 K and 310 K respectively. The Ksv of betrixaban and edoxaban were compared with their respective salts, betrixaban maleate (BEM) and edoxaban tosylate hydrate (EDT).
Fluorescence emission spectra were collected on a Perkin Elmer LS55 fluorimeter, using 5 nm bandwidths for excitation and emission. Samples were excited at 295 nm and 298 K or 310 K, respectively. Subsequently, HSA fluorescence was measured at 350 nm decreases, in the presence of different anticoagulants, corrected by the inner-filter effect using Equation (1) where Icorr and Iobs correspond to fluorescence corrected and obtained intensities, and Aex and Aem correspond to the absorbance at the excitation and emission wavelengths. The quenching data were evaluated using the Stern–Volmer Equation (2), where I0 and I are the fluorescence intensities of the HSA in the absence or presence of anticoagulants (Q, quenchers), and Ksv is the Stern–Volmer constant:(1) Icorr=Iobs×10^Aex+Aem/2 (2) I0/I=1+KsvQ

In the next data set the test system is HSA fatty acid-free. Also on record: method as in PMID 29680174. As to conditions: Tris–HCl (0.10 M NaCl) DMSO 2%, FS, cited from earlier work.
The nature of data set [2]: Aqueous solubility observed in preparing ITC solutions. Type of data set: physicochemical. As to conditions: also with solvent mixtures that included ethanol and DMSO, prevented ITC data. The protocol:
as §1, §2

For data set [3] the following is noted: reversible protein–drug complexes; cited from earlier work.
A further data set concerns BSA. Particulars: binding site IIA, FS, cited from earlier work.
Details of data set [4]: method as in PMID 32279215. As to conditions: rivaroxaban-treated patients; cited from earlier work.

Structures can show the parent of a compound that is named as a salt. Where two headings read alike, the source gives them in different places.

Consider `COc1ccc(-n2nc(C(N)=O)c3c2C(=O)N(c2ccc(N4CCCCC4=O)cc2)CC3)cc1` [AP, apixaban], for which the KITC binding constant on fatty-acid-free HSA was 5560 M⁻¹. Besides, the K in the data set with HSA: heme-Fe(III) is 2.78e+06 M⁻¹; with HSA fatty acid-free (pH 7.4, 28 °C, binding site IIA), 3410 M⁻¹; with HSA fatty acid-free (pH 7.4, 37 °C, binding site IB), 2460 M⁻¹; with HSA fatty acid-free (pH 7.4, 45 °C, binding site IB), 1670 M⁻¹. Besides, the “Ksv (Stern–Volmer constant)” value was 3.36 ± 0.03 ×10^4 M^−1 in data set [1] (298 K) and 2.79 ± 0.02 ×10^4 M^−1 in data set [1] (310 K).
On to `COc1ccc(NC(=O)c2ccc(C(=N)N(C)C)cc2)c(C(=O)Nc2ccc(Cl)cn2)c1` [BE, betrixaban], for which the K in the data set with HSA: heme-Fe(III) is 1.61e+06 M⁻¹. Besides, the aqueous solubility result in data set [2] is “poor aqueous solubility”. The “Ksv (Stern–Volmer constant)” value in data set [1] (298 K) is listed as 1.86 ± 0.03 ×10^4 M^−1; in data set [1] (310 K), 1.44 ± 0.04 ×10^4 M^−1.
As to `COc1ccc(NC(=O)c2ccc(C(=N)N(C)C)cc2)c(C(=O)Nc2ccc(Cl)cn2)c1` [BEM, betrixaban maleate], the KITC binding constant on fatty-acid-free HSA was found to be 1600 M⁻¹. In data set [1], the “Ksv of salt compared to the neutral compound” value is on record as “no significant differences”. Further, the “Ksv (Stern–Volmer constant)” value in data set [1] (298 K) is 1.59±0.05 ×10^4 M^−1; in data set [1] (310 K), 1.36±0.03 ×10^4 M^−1.
For the compound `CN1CCc2nc(C(=O)N[C@@H]3C[C@@H](C(=O)N(C)C)CC[C@@H]3NC(=O)C(=O)Nc3ccc(Cl)cn3)sc2C1` [ED, edoxaban], the K in the data set with HSA: heme-Fe(III) was 769000 M⁻¹. Further, the “binding to plasma proteins” value in data set [3] is given as 55%. Moreover, the results for the aqueous solubility entry in data set [2] and in data set [2] (listed as edoxaban) were “poor aqueous solubility” and “low water solubility”, respectively. Further, the “Ksv (Stern–Volmer constant)” value in data set [1] (298 K) was 1.60 ± 0.04 ×10^4 M^−1; in data set [1] (310 K) it was 1.28 ± 0.05 ×10^4 M^−1.
Turning to `CN1CCc2nc(C(=O)N[C@@H]3C[C@@H](C(=O)N(C)C)CC[C@@H]3NC(=O)C(=O)Nc3ccc(Cl)cn3)sc2C1.Cc1ccc(S(=O)(=O)O)cc1.O` [EDT, Edoxaban tosylate hydrate], the aqueous solubility entry in data set [2] is “poor aqueous solubility”. In addition, the “Ksv of salt compared to the neutral compound” value in data set [1] is given as “no significant differences”. For the same compound, the figures for the “Ksv (Stern–Volmer constant)” value in data set [1] (298 K) and in data set [1] (310 K) were 1.79±0.03 ×10^4 M^−1 and 1.27±0.02 ×10^4 M^−1, respectively.
For `O=C(NC[C@H]1CN(c2ccc(N3CCOCC3=O)cc2)C(=O)O1)c1ccc(Cl)s1` [RV, rivaroxaban], the K was 455000 M⁻¹ with HSA: heme-Fe(III); 132000 M⁻¹ in the data set on BSA (pH 7.4, 25 °C, Phosphate DMSO 0.3%); 18200 M⁻¹ in the data set on BSA (pH 7.4, 30 °C, Phosphate DMSO 0.3%); 4370 M⁻¹ in the data set with BSA (pH 7.4, 35 °C, Phosphate buffer DMSO 0.3%). The “adjusted risk of bleeding per 1.0 g/dL incremental decrease in albumin” value in data set [4] is 4.4 fold. Further, the “binding to plasma proteins” value in data set [3] is listed as 95%. Further, the aqueous solubility entry in data set [2] is “poor aqueous solubility”; in data set [2] (listed as rivaroxaban), “low water solubility”. The “Ksv (Stern–Volmer constant)” value in data set [1] (298 K) was 1.56 ± 0.03 ×10^4 M^−1; in data set [1] (310 K), 0.98 ± 0.04 ×10^4 M^−1.
